# Test: (§1) The drug is tested on Z-021 corresponding to metagenome with ENA study accession number: PRJEB37062 and ENA sample accession number: ERS12561820 for biotransformation under anaerobic condition. The drug concentrations were measured over 9 timepoints collected between 0 and 24 hours of incubation by liquid-chromatography-coupled mass spectrometry (LC–MS)
# Details: 2 µM
# Also: call rule not given here.
row,SMILES,Bacterial Biotransformation
1,CN(C)C(=O)Oc1cc(OC(=O)N(C)C)cc(C(O)CNC(C)(C)C)c1 (stereo not given) [BAMBUTEROL],Compound metabolized
2,CCc1oc2ccccc2c1C(=O)c1cc(Br)c(O)c(Br)c1 [BENZBROMARONE],Compound NOT metabolized

# Test: (§2) The drug is tested on Z-019 corresponding to rat gut metagenome with ENA study accession number: PRJEB37062 and ENA sample accession number: ERS12561818 for biotransformation under anaerobic condition. The drug concentrations were measured over 9 timepoints collected between 0 and 24 hours of incubation by liquid-chromatography-coupled mass spectrometry (LC–MS)
# Details: 2 µM
row,SMILES,Bacterial Biotransformation
1,CN(C)C(=O)Oc1cc(OC(=O)N(C)C)cc(C(O)CNC(C)(C)C)c1 (stereo not given) [BAMBUTEROL],Compound NOT metabolized
2,CCc1oc2ccccc2c1C(=O)c1cc(Br)c(O)c(Br)c1 [BENZBROMARONE],Compound NOT metabolized

# Test: as §2, with “on Z-018” for “on Z-019”, “to pig” for “to rat”, “number: ERS12561817” for “number: ERS12561818”
# Details: 2 µM
row,SMILES,Bacterial Biotransformation
1,CN(C)C(=O)Oc1cc(OC(=O)N(C)C)cc(C(O)CNC(C)(C)C)c1 (stereo not given) [BAMBUTEROL],Compound NOT metabolized
2,CCc1oc2ccccc2c1C(=O)c1cc(Br)c(O)c(Br)c1 [BENZBROMARONE],Compound metabolized

# Test: as §2, with “on Z-017” for “on Z-019”, “to mouse” for “to rat”, “number: ERS12561816” for “number: ERS12561818”
# Details: 2 µM
row,SMILES,Bacterial Biotransformation
1,CN(C)C(=O)Oc1cc(OC(=O)N(C)C)cc(C(O)CNC(C)(C)C)c1 (stereo not given) [BAMBUTEROL],Compound NOT metabolized
2,CCc1oc2ccccc2c1C(=O)c1cc(Br)c(O)c(Br)c1 [BENZBROMARONE],Compound NOT metabolized

# Test: as §2, with “Z-014” for “Z-019”, “ERS12561814” for “ERS12561818”
# Details: 2 µM
row,SMILES,Bacterial Biotransformation
1,CN(C)C(=O)Oc1cc(OC(=O)N(C)C)cc(C(O)CNC(C)(C)C)c1 (stereo not given) [BAMBUTEROL],Compound NOT metabolized
2,CCc1oc2ccccc2c1C(=O)c1cc(Br)c(O)c(Br)c1 [BENZBROMARONE],Compound NOT metabolized

# Test: as §1, with “Z-010” for “Z-021”, “ERS12561810” for “ERS12561820”
# Details: 2 µM
row,SMILES,Bacterial Biotransformation
1,CN(C)C(=O)Oc1cc(OC(=O)N(C)C)cc(C(O)CNC(C)(C)C)c1 (stereo not given) [BAMBUTEROL],Compound NOT metabolized
2,CCc1oc2ccccc2c1C(=O)c1cc(Br)c(O)c(Br)c1 [BENZBROMARONE],Compound metabolized

# Test: as §1, with “Z-005” for “Z-021”, “ERS12561805” for “ERS12561820”
# Details: 2 µM
row,SMILES,Bacterial Biotransformation
1,CN(C)C(=O)Oc1cc(OC(=O)N(C)C)cc(C(O)CNC(C)(C)C)c1 (stereo not given) [BAMBUTEROL],Compound NOT metabolized
2,CCc1oc2ccccc2c1C(=O)c1cc(Br)c(O)c(Br)c1 [BENZBROMARONE],Compound metabolized

# Test: as §2, with “on Z-001” for “on Z-019”, “to mouse” for “to rat”, “number: ERS12561801” for “number: ERS12561818”
# Details: 2 µM
row,SMILES,Bacterial Biotransformation
1,CN(C)C(=O)Oc1cc(OC(=O)N(C)C)cc(C(O)CNC(C)(C)C)c1 (stereo not given) [BAMBUTEROL],Compound metabolized
2,CCc1oc2ccccc2c1C(=O)c1cc(Br)c(O)c(Br)c1 [BENZBROMARONE],Compound NOT metabolized

# Test: as §2, with “on WLS-170” for “on Z-019”, “to human” for “to rat”, “number: ERS12561762” for “number: ERS12561818”
# Details: 2 µM
row,SMILES,Bacterial Biotransformation
1,CN(C)C(=O)Oc1cc(OC(=O)N(C)C)cc(C(O)CNC(C)(C)C)c1 (stereo not given) [BAMBUTEROL],Compound NOT metabolized
2,CCc1oc2ccccc2c1C(=O)c1cc(Br)c(O)c(Br)c1 [BENZBROMARONE],Compound metabolized

# Test: as §2, with “on WLS-090” for “on Z-019”, “to human” for “to rat”, “number: ERS12561753” for “number: ERS12561818”
# Details: 2 µM
row,SMILES,Bacterial Biotransformation
1,CN(C)C(=O)Oc1cc(OC(=O)N(C)C)cc(C(O)CNC(C)(C)C)c1 (stereo not given) [BAMBUTEROL],Compound metabolized
2,CCc1oc2ccccc2c1C(=O)c1cc(Br)c(O)c(Br)c1 [BENZBROMARONE],Compound metabolized

# Test: as §2, with “on WLS-086” for “on Z-019”, “to human” for “to rat”, “number: ERS12561752” for “number: ERS12561818”
# Details: 2 µM
row,SMILES,Bacterial Biotransformation
1,CN(C)C(=O)Oc1cc(OC(=O)N(C)C)cc(C(O)CNC(C)(C)C)c1 (stereo not given) [BAMBUTEROL],Compound metabolized
2,CCc1oc2ccccc2c1C(=O)c1cc(Br)c(O)c(Br)c1 [BENZBROMARONE],Compound metabolized

# Test: as §2, with “on WLS-082” for “on Z-019”, “to human” for “to rat”, “number: ERS12561751” for “number: ERS12561818”
# Details: 2 µM
row,SMILES,Bacterial Biotransformation
1,CN(C)C(=O)Oc1cc(OC(=O)N(C)C)cc(C(O)CNC(C)(C)C)c1 (stereo not given) [BAMBUTEROL],Compound NOT metabolized
2,CCc1oc2ccccc2c1C(=O)c1cc(Br)c(O)c(Br)c1 [BENZBROMARONE],Compound metabolized

# Test: as §2, with “on WLS-039” for “on Z-019”, “to human” for “to rat”, “number: ERS12561746” for “number: ERS12561818”
# Details: 2 µM
row,SMILES,Bacterial Biotransformation
1,CN(C)C(=O)Oc1cc(OC(=O)N(C)C)cc(C(O)CNC(C)(C)C)c1 (stereo not given) [BAMBUTEROL],Compound NOT metabolized
2,CCc1oc2ccccc2c1C(=O)c1cc(Br)c(O)c(Br)c1 [BENZBROMARONE],Compound metabolized

# Test: as §2, with “on WLS-027” for “on Z-019”, “to human” for “to rat”, “number: ERS12561744” for “number: ERS12561818”
# Details: 2 µM
row,SMILES,Bacterial Biotransformation
1,CN(C)C(=O)Oc1cc(OC(=O)N(C)C)cc(C(O)CNC(C)(C)C)c1 (stereo not given) [BAMBUTEROL],Compound NOT metabolized
2,CCc1oc2ccccc2c1C(=O)c1cc(Br)c(O)c(Br)c1 [BENZBROMARONE],Compound metabolized

# Details: human gut metagenome, 24 h, 2 µM
row,SMILES,Bacterial Biotransformation
1,CN(C)C(=O)Oc1cc(OC(=O)N(C)C)cc(C(O)CNC(C)(C)C)c1 (stereo not given) [BAMBUTEROL],Compound NOT metabolized
2,CCc1oc2ccccc2c1C(=O)c1cc(Br)c(O)c(Br)c1 [BENZBROMARONE],Compound NOT metabolized

# Details: human gut metagenome, 24 h, 2 µM
# Remark: another data set of the same source
row,SMILES,Bacterial Biotransformation
1,CN(C)C(=O)Oc1cc(OC(=O)N(C)C)cc(C(O)CNC(C)(C)C)c1 (stereo not given) [BAMBUTEROL],Compound NOT metabolized
2,CCc1oc2ccccc2c1C(=O)c1cc(Br)c(O)c(Br)c1 [BENZBROMARONE],Compound NOT metabolized

# Details: human gut metagenome, 24 h, 2 µM
# Remark: another data set of the same source
row,SMILES,Bacterial Biotransformation
1,CN(C)C(=O)Oc1cc(OC(=O)N(C)C)cc(C(O)CNC(C)(C)C)c1 (stereo not given) [BAMBUTEROL],Compound metabolized
2,CCc1oc2ccccc2c1C(=O)c1cc(Br)c(O)c(Br)c1 [BENZBROMARONE],Compound metabolized

# Details: human gut metagenome, 24 h, 2 µM
# Remark: another data set of the same source
row,SMILES,Bacterial Biotransformation
1,CN(C)C(=O)Oc1cc(OC(=O)N(C)C)cc(C(O)CNC(C)(C)C)c1 (stereo not given) [BAMBUTEROL],Compound metabolized
2,CCc1oc2ccccc2c1C(=O)c1cc(Br)c(O)c(Br)c1 [BENZBROMARONE],Compound metabolized

# Details: human gut metagenome, 24 h, 2 µM
# Remark: another data set of the same source
row,SMILES,Bacterial Biotransformation
1,CN(C)C(=O)Oc1cc(OC(=O)N(C)C)cc(C(O)CNC(C)(C)C)c1 (stereo not given) [BAMBUTEROL],Compound NOT metabolized
2,CCc1oc2ccccc2c1C(=O)c1cc(Br)c(O)c(Br)c1 [BENZBROMARONE],Compound metabolized

# Details: human gut metagenome, 24 h, 2 µM
# Remark: another data set of the same source
row,SMILES,Bacterial Biotransformation
1,CN(C)C(=O)Oc1cc(OC(=O)N(C)C)cc(C(O)CNC(C)(C)C)c1 (stereo not given) [BAMBUTEROL],Compound metabolized
2,CCc1oc2ccccc2c1C(=O)c1cc(Br)c(O)c(Br)c1 [BENZBROMARONE],Compound metabolized
